In patent publication US7576115B2, “Heterocyclic compounds and thrombopoietin receptor activators” (Nissan Chemical Industries, Ltd., priority 2003, dated 2009):

System: Human bone marrow CD34+ cells
Test: Megakaryocyte colony stimulating activity (megakaryocyte colony forming method)
Format: cell-based
Conditions: Concentration 0.3 μg/ml; 11 days; colonies of at least 8 stained megakaryocyte cells
Protocol: The action of the compound of Synthetic Example 2 of the present invention on the proliferation, differentiation and maturation of megakaryocyte cells was measured by the megakaryocyte colony forming method using human bone marrow cells. Human bone marrow CD34^+ cells (Cambrex Bio Science Walkersville) were incubated on 2-well chamber slide for 11 days in a CO2 incubator (5% CO2, 37° C.) using MegaCult™-C (StemCell Technologies) containing 0.1% (v/v) of the compound of Synthetic Example 2 dissolved in DMSO. After dehydration and fixation, the cells were stained with an anti-glycoprotein IIb/IIIa antibody in accordance with the instruction by the manufacturer. The colonies consisting of at least 8 stained megakaryocyte cells in each well was counted under a microscope. The megakaryocyte colony counts of duplicate or more assays were averaged.

Question: With `CC(=NNC(=S)Nc1ccc(C(=O)O)cc1)c1nn(C)c(-c2ccc(Cl)c(Cl)c2)c1O` [Synthetic Example 2, 4-{[(2-{1-[5-(3,4-dichlorophenyl)-4-hydroxy-1-methyl-1H-pyrazol-3-yl]ethylidene}hydrazino)carbonothioyl]amino}benzoic acid] as the molecule, how does the “Megakaryocyte colony Count” value read?
Answer: 25

Same assay, conditions: Concentration 1 μg/ml; 11 days; colonies of at least 8 stained megakaryocyte cells

Question: How did the “Megakaryocyte colony Count” value turn out when `CC(=NNC(=S)Nc1ccc(C(=O)O)cc1)c1nn(C)c(-c2ccc(Cl)c(Cl)c2)c1O` [Synthetic Example 2, 4-{[(2-{1-[5-(3,4-dichlorophenyl)-4-hydroxy-1-methyl-1H-pyrazol-3-yl]ethylidene}hydrazino)carbonothioyl]amino}benzoic acid] was run?
Answer: 48

Biological target: T1, thrombopoietin (TPO) receptor (Homo sapiens, UniProt P40238)
T1 construct: expressed in transfected cells; host or cells: human leukemic cell line UT7/EPO, stably transformed (UT7/EPO-mpl)
T1 sequence (P40238 26-635): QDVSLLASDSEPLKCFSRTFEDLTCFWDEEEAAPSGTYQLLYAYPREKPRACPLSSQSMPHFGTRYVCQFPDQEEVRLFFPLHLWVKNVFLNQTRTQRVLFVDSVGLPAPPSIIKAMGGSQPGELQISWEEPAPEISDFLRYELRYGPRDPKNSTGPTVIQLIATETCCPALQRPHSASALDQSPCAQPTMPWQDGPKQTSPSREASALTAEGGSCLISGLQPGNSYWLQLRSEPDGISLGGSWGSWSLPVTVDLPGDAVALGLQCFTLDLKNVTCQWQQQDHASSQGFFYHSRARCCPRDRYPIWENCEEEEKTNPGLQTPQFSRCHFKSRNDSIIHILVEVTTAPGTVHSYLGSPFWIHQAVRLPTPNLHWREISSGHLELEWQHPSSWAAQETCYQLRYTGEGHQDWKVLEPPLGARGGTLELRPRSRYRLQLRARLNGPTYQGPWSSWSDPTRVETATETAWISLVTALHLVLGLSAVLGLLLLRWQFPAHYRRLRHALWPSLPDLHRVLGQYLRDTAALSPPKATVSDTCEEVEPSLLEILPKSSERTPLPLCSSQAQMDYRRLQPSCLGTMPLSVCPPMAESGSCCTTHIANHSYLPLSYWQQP
Test: Stimulation of proliferation of TPO-dependent cell line UT7/EPO-mpl (WST-8)
Format: cell-based
Conditions: FIG. 1; concentration-dependent; 4 days incubation, WST-8 absorbance at 450 nm
Protocol: The reactivity of the compound of Synthetic Example 3 of the present invention with thrombopoietin (TPO) receptor was assayed using a human leukemic cell line, UT7/EPO-mpl.
(§1) UT7/EPO-mpl is a stable transformed cell line obtained by introducing into human leukemic cell line UT7/EPO a vector that induces expression of human TPO receptor (c-mp1) under control of a cytomegaloviral promoter by the method of Takatoku et al. (J. Biol. Chem., 272:7259-7263 (1997)). […] These two cell lines were subcultured in Iscove's modified Dulbecco's medium (IMDM; GIBCO) containing 10% fetal bovine serum (FBS; TRACE SCIENTIFIC, Thermo Electron or BioWest) using a CO2 incubator (5% CO2, 37° C.)
(§2) The subcultured cells described above were washed twice with phosphate buffered saline (PBS) and suspended in IMDM containing 10% FBS at a cell density of 6×10^4 cells/ml. The cell suspension was transferred to a 96-well tissue culture plate (CORNING) in 100 μl aliquots. Then either TPO (PeproTech EC) or the compound of Synthetic Example 3 dissolved in dimethyl sulfoxide (DMSO) was diluted 83-fold with IMDM containing 10% FBS and added to the aforementioned cell suspension in 20 μl aliquots. The suspension was incubated in a CO2 incubator (5% Co2, 37° C.) for 4 days. Cell proliferation was assayed using WST-8 reagent (Kishida Chemical Co., Ltd.) according to instructions by the manufacturer. A 10 μl aliquot of 5 mM WST-8 reagent solution was added to each well of the tissue culture plate, and the plate was incubated at 37° C. for 4 h. The formazan pigment generated was detected by measuring the absorbance at 450 nm with a 96-well microplate reader (Nihon Molecular Devices, Spectramax 190).
The compounds of the following Synthetic Examples were tested according to the method of Assay Example 1 to determine the concentration of each compound that yields a growth rate corresponding to 50% of the growth of human leukemic cell line UT-7/EPO-mpl observed in the presence of 10 ng/ml TPO (EC50).

Question: Which “proliferation of TPO-responsive UT7/EPO-mpl cells” value does the source give for `CC(=NNC(=O)c1ccc(C(=O)O)cc1)c1nn(C)c(-c2ccc(C(C)(C)C)cc2)c1O` [Synthetic Example 3, 4-[(2-{1-[5-(4-tert-butylphenyl)-4-hydroxy-1-methyl-1H-pyrazol-3-yl]ethylidene}hydrazino)carbonyl]benzoic acid] here?
Answer: stimulated

Same assay, conditions: concentration that yields a growth rate corresponding to 50% of the growth of UT-7/EPO-mpl observed in the presence of 10 ng/ml TPO

Question: Which EC50 does the source give for `C/C(=N\NC(=O)c1ccc(C(N)=O)s1)c1csc(-c2ccc(Cl)c(Cl)c2)c1O` [compound 179] here?
Answer: 6.6 nM

Question: For `C/C(=N\NC(=O)c1ccc(N)c(N)c1)c1csc(-c2ccc(Cl)c(Cl)c2)c1O` [compound 176], which EC50 is on record?
Answer: 36.8 nM

Question: For `C/C(=N\NC(=O)c1ccc(C(=O)O)cc1N)c1nn(C)c(-c2ccc(C(F)(F)F)cc2)c1O` [compound 228], which EC50 is on record?
Answer: 1.56 nM

Question: Which EC50 does the source give for `CC(=O)Nc1cccc(NC(=S)N/N=C(\C)c2nn(C)c(-c3ccc(C(F)(F)F)cc3)c2O)c1` [compound 157] here?
Answer: 6.32 nM

Question: How did the EC50 turn out when `C/C(=N\NC(=S)Nc1ccccc1CC(N)=O)c1nn(C)c(-c2ccc(C(F)(F)F)cc2)c1O` [compound 161] was run?
Answer: 7.95 nM

Question: `C/C(=N\NC(=O)c1ccc(C(=O)NC2CCCC2)s1)c1csc(-c2ccc(Cl)c(Cl)c2)c1O` [compound 178] was tested. Which EC50 did it give?
Answer: 6.51 nM

Question: Which EC50 does the source give for `C/C(=N\NC(=S)Nc1cccc(C(=O)O)c1)c1csc(-c2ccc(C)c(C)c2)c1O` [compound 136] here?
Answer: 7.05 nM

Question: Which EC50 does the source give for `C/C(=N\NC(=S)Nc1cc(C(=O)O)cc([N+](=O)[O-])c1)c1nn(C)c(-c2ccc(Cl)c(Cl)c2)c1O` [compound 164] here?
Answer: 5.73 nM

Question: `C/C(=N\NC(=O)c1ccc2cc(C(=O)O)ccc2c1)c1csc(-c2ccc(Cl)c(Cl)c2)c1O` [compound 169] was tested. Which EC50 did it give?
Answer: 7.41 nM

Question: Which EC50 does the source give for `C/C(=N\NC(=O)c1sc(N)nc1C(F)(F)F)c1csc(-c2ccc(Cl)c(Cl)c2)c1O` [compound 181] here?
Answer: 5.65 nM

Question: How did the EC50 turn out when `C/C(=N\NC(=O)c1ccc(C(=O)O)c([N+](=O)[O-])c1)c1csc(-c2ccc(C)c(C)c2)c1O` [compound 212] was run?
Answer: 0.529 nM

Question: How did the EC50 turn out when `C/C(=N\NC(=S)Nc1ccc2cn[nH]c2c1)c1nn(C)c(-c2ccc(Cl)c(Cl)c2)c1O` [compound 155] was run?
Answer: 11.2 nM

Question: With `C/C(=N\NC(=O)c1ccc(C(=O)NCCCN(C)C)s1)c1csc(-c2ccc(Cl)c(Cl)c2)c1O` [compound 226] as the molecule, how does the EC50 read?
Answer: 4.08 nM

Question: For `C/C(=N\NC(=S)Nc1ccc2[nH]c(=O)[nH]c2c1)c1csc(-c2ccc(Cl)c(Cl)c2)c1O` [compound 154], which EC50 is on record?
Answer: 5.69 nM

System: UT7/EPO cells
Test: Proliferation of mother cell line UT7/EPO expressing no TPO receptor (WST-8)
Format: cell-based, human
Conditions: FIG. 2
Protocol: as §1
as §2, with “A 10 μl aliquot of 5 mM WST-8 reagent solution was added to each well of the tissue culture plate, and the plate was incubated at 37° C. for 4 h.” left out

Question: Which “effect on proliferation of UT7/EPO, the mother cell line” value does the source give for `CC(=NNC(=O)c1ccc(C(=O)O)cc1)c1nn(C)c(-c2ccc(C(C)(C)C)cc2)c1O` [Synthetic Example 3, 4-[(2-{1-[5-(4-tert-butylphenyl)-4-hydroxy-1-methyl-1H-pyrazol-3-yl]ethylidene}hydrazino)carbonyl]benzoic acid] here?
Answer: no effect
